Source: patent publication US8426420B2, “Heterocyclic pyrazole-carboxamidesas P2Y12 antagonists” (Sanofi, priority 2007, dated 2013)

Tests used:
[1] = test system: human platelet rich plasma; assay: Inhibition of human platelet aggregation, "Born"-method using single cuvettes; type: cell-based; conditions: 0.1 h, ADP-induced aggregation, 6 minutes
Protocol: Inhibition of Human Platelet Aggregation
Alternatively to a binding assay which measures a compound's ability to bind to the P2Y12 receptor, the effect on cellular function was also determined. This ability of the compound was evaluated in two platelet aggregation assays: in 96-well plates and with the “Born”-method using single cuvettes.
Whole blood was collected from healthy volunteers using 20 ml syringes containing 2 ml of buffered Citrate. The anticoagulated whole blood was transferred into 15 ml polypropylene conical tubes (10 ml per tube). The tubes were centrifuged for 15 minutes at 340×g at RT without using the centrifuge brake. This procedure leads to a pellet of cellular components and a supernatant of platelet rich plasma (PRP). The PRP layer was collected from each tube and pooled for each donor. To avoid carry over of cellular components following centrifugation, approximately 5 ml of PRP was left in the tube. The platelet concentration was determined using a Coulter Counter.
The 15 ml tubes containing the pellet of cellular components were centrifuged again for 10 minutes at 1940×g. This pelleted out most particulate blood constituents remaining, leaving a layer of Platelet Poor Plasma (PPP). The PPP was collected for each donor. The PRP layer, previously set aside, was diluted with PPP to a final concentration of approximately 3×E8 platelets/ml with the PPP.
The human platelet aggregation assay is performed in single use cuvettes using the platelet aggregation profiler (PAP-4 or -8, Bio/Data corporation).
In the assay cuvette 4 μl of test compound at 100× final concentration in DMSO is mixed with 392 μl fresh PRP and incubated for 2 minutes at 37° C. with 1.200 rpm stirring. Following that incubation period, 4 μl of 250 μM ADP is added to the reaction mix. This addition of ADP is sufficient to induce aggregation in the absence of an inhibitor. After that aggregation is measured over 6 minutes at 37° C. with 1.200 rpm stirring. Results of the assay are expressed as % inhibition, and are calculated using maximum aggregation (Tmax) or area under curve (AUC) of the absorbance over 6 minutes.
The IC50 data of the above described platelet aggregation assay using human platelet rich plasma for exemplary compounds of the present invention are shown in table 3.

[2] = test system: human platelet rich plasma; assay: Inhibition of human platelet aggregation, 96-well assay; type: cell-based; conditions: Homo sapiens, Platelet, 20 min
In short: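 ADP-induced aggregation read as 650 nm absorbance every minute for 20 min at 37 °C, with shaking between reads. PRP (~3×E8 platelets/ml, diluted with PPP, ACD-A blood from healthy volunteers) was exposed to compound for 5 min before adding a 40 μM ADP stock (15 μl into 150 μl).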

human P2Y12 receptor = human P2Y12 receptor (Homo sapiens, UniProt Q9H244); assay: Human P2Y12 recombinant cell membrane binding assay with 33P 2MeS-ADP; conditions: competition against 33P 2MeS-ADP, membranes of CHO cells with recombinant human P2Y12 receptor
In short: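 CHO membranes expressing human P2Y12 (20 μg/ml stock) preincubated 15 min at RT with compound in HEPES pH 7.4 buffer, then 33P 2MeS-ADP (1.61 nM working solution) added for 20 min at RT. Bound label filtered and counted; four-point, five-fold series from 10 μM final, triplicate, four-parameter fit.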

Sequence of human P2Y12 receptor (Q9H244 whole entry): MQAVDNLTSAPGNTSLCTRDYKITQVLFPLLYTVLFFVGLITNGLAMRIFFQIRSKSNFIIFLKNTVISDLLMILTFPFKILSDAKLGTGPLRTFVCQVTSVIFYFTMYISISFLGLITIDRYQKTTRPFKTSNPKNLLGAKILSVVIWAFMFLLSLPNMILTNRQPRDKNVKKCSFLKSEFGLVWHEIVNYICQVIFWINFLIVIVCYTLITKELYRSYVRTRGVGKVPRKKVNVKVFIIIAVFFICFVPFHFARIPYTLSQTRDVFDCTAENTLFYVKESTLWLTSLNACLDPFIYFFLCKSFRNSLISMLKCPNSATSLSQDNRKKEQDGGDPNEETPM

Row | Structure (SMILES) | IC50 [1] [nM] | IC50 [2] [nM] | IC50 (human P2Y12 receptor) [nM]
1 | O=C(O)CC[C@H](NC(=O)c1cc(OCC(=O)N2CCC[C@H]2C(=O)NC2CCC2)n(-c2ccccc2)n1)C(=O)N1CCC(C(=O)c2cccc(Cl)c2)CC1 [Example 103, (S)-5-[4-(3-Chloro-benzoyl)-piperidin-1-yl]-4-({5-[2-((S)-2-cyclobutylcarbamoyl-pyrrolidin-1-yl)-2-oxo-ethoxy]-1-phenyl-1H-pyrazole-3-carbonyl}-amino)-5-oxo-pentanoic acid] | 120 | 560 | 127
2 | CCOC(=O)N1CCN(C(=O)[C@H](CCO)NC(=O)c2cc(OCC(=O)N3CCC[C@H]3C(=O)NC3CCC3)n(-c3ccccc3)n2)CC1 [Example 115, 4-[(S)-2-({5-[2-((S)-2-Cyclobutylcarbamoyl-pyrrolidin-1-yl)-2-oxo-ethoxy]-1-phenyl-1H-pyrazole-3-carbonyl}-amino)-4-hydroxy-butyryl]-piperazine-1-carboxylic acid ethyl ester] | 120 | 210 | 59
3 | CCCCOC(=O)N1CCN(C(=O)[C@H](CCC(=O)O)NC(=O)c2cc(OCC(=O)N3CCC[C@H]3C(=O)NC3CC3)n(-c3ccccc3)n2)CC1 [Example 118, 4-[(S)-4-Carboxy-2-({5-[2-((S)-2-cyclopropylcarbamoyl-pyrrolidin-1-yl)-2-oxo-ethoxy]-1-phenyl-1H-pyrazole-3-carbonyl}-amino)-butyryl]-piperazine-1-carboxylic acid butyl ester] | 25 | 20 | 9
4 | CCCCOC(=O)N1CCN(C(=O)[C@H](CCC(=O)O)NC(=O)c2cc(OCC(=O)N3CCC[C@H]3C(=O)NCC3CC3)n(-c3ccccc3)n2)CC1 [Example 120, 4-[(S)-4-Carboxy-2-({5-[2-((S)-2-cyclopropylmethylcarbamoyl-pyrrolidin-1-yl)-2-oxo-ethoxy]-1-phenyl-1H-pyrazole-3-carbonyl}-amino)-butyryl]-piperazine-1-carboxylic acid butyl ester] | 21 | 10 | 3
5 | CCCCOC(=O)N1CCN(C(=O)[C@H](CCC(=O)O)NC(=O)c2cc(OCC(=O)N3CCC[C@H]3C(=O)NCC(F)F)n(-c3ccccc3)n2)CC1 [Example 121, 4-{(S)-4-Carboxy-2-[(5-{2-[(S)-2-(2,2-difluoro-ethylcarbamoyl)-pyrrolidin-1-yl]-2-oxo-ethoxy}-1-phenyl-1H-pyrazole-3-carbonyl)-amino]-butyryl}-piperazine-1-carboxylic acid butyl ester] | 5.8 | 30 | 10
6 | CCCCOC(=O)N1CCN(C(=O)[C@H](CCC(=O)O)NC(=O)c2cc(OCC(=O)N3CCC[C@H]3C(=O)NCCF)n(-c3ccccc3)n2)CC1 [Example 122, 4-{(S)-4-Carboxy-2-[(5-{2-[(S)-2-(2-fluoro-ethylcarbamoyl)-pyrrolidin-1-yl]-2-oxo-ethoxy}-1-phenyl-1H-pyrazole-3-carbonyl)-amino]-butyryl}-piperazine-1-carboxylic acid butyl ester] | 81 | 40 | 12
7 | CCCCOC(=O)N1CCN(C(=O)[C@H](CCC(=O)O)NC(=O)c2cc(OCC(=O)N3CCC[C@H]3C(=O)NCC(F)(F)F)n(-c3ccccc3)n2)CC1 [Example 123, 4-{(S)-4-Carboxy-2-[(5-{2-[(S)-2-(2,2,2-trifluoro-ethylcarbamoyl)-pyrrolidin-1-yl]-2-oxo-ethoxy}-1-phenyl-1H-pyrazole-3-carbonyl)-amino]-butyryl}-piperazine-1-carboxylic acid butyl ester] | 2.6 | 30 | 5
8 | CCCCOC(=O)N1CCN(C(=O)[C@H](CCC(=O)OCC)NC(=O)c2cc(OCC(=O)N3CCC[C@H]3C(=O)NC3CCC3)n(-c3ccccc3)n2)CC1 [Example 143, 4-[(S)-2-({5-[2-((S)-2-Cyclobutylcarbamoyl-pyrrolidin-1-yl)-2-oxo-ethoxy]-1-phenyl-1H-pyrazole-3-carbonyl}-amino)-4-ethoxycarbonyl-butyryl]-piperazine-1-carboxylic acid butyl ester] | 150 | 90 | 5
9 | CCCOC(=O)N1CCN(C(=O)[C@H](CCC(=O)O)NC(=O)c2cc(OCC(=O)N3CCC[C@H]3C(=O)NC3CCC3)n(-c3ccccc3)n2)CC1 [Example 162, 4-[(S)-4-Carboxy-2-({5-[2-((S)-2-cyclobutylcarbamoyl-pyrrolidin-1-yl)-2-oxo-ethoxy]-1-phenyl-1H-pyrazole-3-carbonyl}-amino)-butyryl]-piperazine-1-carboxylic acid propyl ester] | 33 | 20 | 8
10 | CCOC(=O)N1CCN(C(=O)[C@H](CCC(=O)O)NC(=O)c2cc(OCC(=O)N3CCC[C@H]3c3nc(C)c[nH]3)n(-c3ccccc3)n2)CC1 [Example 172, 4-{(S)-4-Carboxy-2-[(5-{2-[(S)-2-(4-methyl-1H-imidazol-2-yl)-pyrrolidin-1-yl]-2-oxo-ethoxy}-1-phenyl-1H-pyrazole-3-carbonyl)-amino]-butyryl}-piperazine-1-carboxylic acid ethyl ester] | 530 | 380 | 146
11 | CCCCOC(=O)N1CCN(C(=O)CNC(=O)c2cc(OCC(=O)N3CCC[C@H]3C(=O)NC3CCC3)n(-c3ccccc3)n2)CC1 [Example 182, 4-[2-({5-[2-((S)-2-Cyclobutylcarbamoyl-pyrrolidin-1-yl)-2-oxo-ethoxy]-1-phenyl-1H-pyrazole-3-carbonyl}-amino)-acetyl]-piperazine-1-carboxylic acid butyl ester] | 46 | 30 | 20
12 | CCCCOC(=O)N1CCN(C(=O)[C@@H](C)NC(=O)c2cc(OCC(=O)N3CCC[C@H]3C(=O)NC3CCC3)n(-c3ccccc3)n2)CC1 [Example 184, 4-[(R)-2-({5-[2-((S)-2-Cyclobutylcarbamoyl-pyrrolidin-1-yl)-2-oxo-ethoxy]-1-phenyl-1H-pyrazole-3-carbonyl}-amino)-propionyl]-piperazine-1-carboxylic acid butyl ester] | 80 | 280 | 18
13 | CCCOC(=O)N1CCN(C(=O)CNC(=O)c2cc(OCC(=O)N3CCC[C@H]3C(=O)NC3CCC3)n(-c3ccccc3)n2)CC1 [Example 210, 4-[2-({5-[2-((S)-2-Cyclobutylcarbamoyl-pyrrolidin-1-yl)-2-oxo-ethoxy]-1-phenyl-1H-pyrazole-3-carbonyl}-amino)-acetyl]-piperazine-1-carboxylic acid propyl ester] | 30 | 120 | 72
14 | CCCCOC(=O)N1CCN(C(=O)[C@H](COCC)NC(=O)c2cc(OCC(=O)N3CCC[C@H]3C(=O)NC3CCC3)n(-c3ccccc3)n2)CC1 [Example 227, 4-[(S)-2-({5-[2-((S)-2-Cyclobutylcarbamoyl-pyrrolidin-1-yl)-2-oxo-ethoxy]-1-phenyl-1H-pyrazole-3-carbonyl}-amino)-3-ethoxy-propionyl]-piperazine-1-carboxylic acid butyl ester] | 130 | 130 | 16
15 | CCCCOC(=O)N1CCN(C(=O)[C@@H](NC(=O)c2cc(OCC(=O)N3CCC[C@H]3C(=O)NC3CCC3)n(-c3ccccc3)n2)C2CC2)CC1 [Example 230, 4-[(S)-2-({5-[2-((S)-2-Cyclobutylcarbamoyl-pyrrolidin-1-yl)-2-oxo-ethoxy]-1-phenyl-1H-pyrazole-3-carbonyl}-amino)-2-cyclopropyl-acetyl]-piperazine-1-carboxylic acid butyl ester] | 80 | 210 | 14
16 | CCCCOC(=O)N1CCN(C(=O)[C@H](CCOC)NC(=O)c2cc(OCC(=O)N3CCC[C@H]3C(=O)NC3CCC3)n(-c3ccccc3)n2)CC1 [Example 231, 4-[(S)-2-({5-[2-((S)-2-Cyclobutylcarbamoyl-pyrrolidin-1-yl)-2-oxo-ethoxy]-1-phenyl-1H-pyrazole-3-carbonyl}-amino)-4-methoxy-butyryl]-piperazine-1-carboxylic acid butyl ester] | 30 | 70 | 19
